Assay results as given in ChEMBL document CHEMBL1145238, “Selective PPARgamma modulators with improved pharmacological profiles” (Bioorg Med Chem Lett, 2005).

How the values were obtained:
[1] = Area under plasma concentration time curve when administered to db/db mice at 30 mg/kg dose; format: ADME, organism-based; design: dose 30 mg/kg; details: mouse, in vivo
[2] = biological target: T1, Peroxisome proliferator-activated receptor gamma (Homo sapiens, UniProt P37231)
T1 sequence (P37231 whole entry): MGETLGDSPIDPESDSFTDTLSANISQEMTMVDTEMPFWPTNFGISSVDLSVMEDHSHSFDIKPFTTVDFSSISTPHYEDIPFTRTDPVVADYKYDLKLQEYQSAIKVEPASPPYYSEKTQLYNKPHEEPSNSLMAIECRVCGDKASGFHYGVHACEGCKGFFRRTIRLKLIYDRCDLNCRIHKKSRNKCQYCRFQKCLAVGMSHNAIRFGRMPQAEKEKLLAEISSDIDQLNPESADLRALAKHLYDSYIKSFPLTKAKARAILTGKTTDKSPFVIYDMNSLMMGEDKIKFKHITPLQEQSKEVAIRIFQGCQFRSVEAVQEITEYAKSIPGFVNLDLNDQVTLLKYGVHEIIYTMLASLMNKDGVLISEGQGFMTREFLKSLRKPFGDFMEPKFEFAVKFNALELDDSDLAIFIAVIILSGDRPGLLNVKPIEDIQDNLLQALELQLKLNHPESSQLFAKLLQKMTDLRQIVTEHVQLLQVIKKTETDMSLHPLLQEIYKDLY
Description: Maximal intrinsic response against peroxisome proliferator activated receptor gamma transactivation

[3] = Area under plasma concentration time curve when administered to Sprague Dawley rats after once daily dosing for two weeks; format: ADME; details: rat
[4] = biological target: T1, Peroxisome proliferator-activated receptor gamma; experiment: Inhibition of human peroxisome proliferator activated receptor gamma binding
[5] = mouse, in vivo, 10 mg/kg
Description: Area under plasma concentration time curve when administered to db/db mice at 10 mg/kg dose; Range = 250-700 uMh

[6] = biological target: Cytochrome P450 2C9 (Homo sapiens, UniProt P11712); experiment: Inhibitory concentration against Cytochrome P450 2C9 in rats
Chain of Cytochrome P450 2C9 (P11712 whole entry): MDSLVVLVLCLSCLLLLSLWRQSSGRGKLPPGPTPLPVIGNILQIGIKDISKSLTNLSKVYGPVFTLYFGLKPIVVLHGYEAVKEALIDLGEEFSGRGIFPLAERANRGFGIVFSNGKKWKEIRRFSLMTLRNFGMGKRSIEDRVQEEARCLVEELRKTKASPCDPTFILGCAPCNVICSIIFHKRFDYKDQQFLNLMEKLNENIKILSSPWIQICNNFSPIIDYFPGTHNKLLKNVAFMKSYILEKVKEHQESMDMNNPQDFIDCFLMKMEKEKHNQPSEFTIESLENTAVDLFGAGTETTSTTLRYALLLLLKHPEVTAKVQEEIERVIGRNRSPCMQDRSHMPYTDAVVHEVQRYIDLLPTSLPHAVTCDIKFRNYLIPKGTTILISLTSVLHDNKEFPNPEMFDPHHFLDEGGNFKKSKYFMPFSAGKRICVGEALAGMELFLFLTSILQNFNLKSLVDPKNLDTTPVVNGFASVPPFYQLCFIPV

Row | EC50 [2] [µM] | IC50 [4] [µM] | Structure (SMILES) | further results
1 | > 3 | > 50 | CN1C(=O)SC(Cc2ccc(OCCN(C)c3ccccn3)cc2)C1=O (stereo not given) | –
2 | 0.031 | 0.062 | C#CCOc1cccc(Cc2c(C)n(C(=O)c3ccc(OC)cc3)c3ccc(OC(F)(F)F)cc23)c1 | –
3 | 0.114 | 0.109 | Cc1c(Oc2cc(Cl)cc(O[C@@H](C)C(=O)O)c2)c2cc(OC(F)(F)F)ccc2n1-c1noc2cc(Cl)ccc12 | –
4 | 0.003 | 0.005 | Cc1c(Oc2cc(O[C@@H](C)C(=O)O)ccc2Cl)c2cc(OC(F)(F)F)ccc2n1-c1noc2cc(Cl)ccc12 | –
5 | – | 0.641 | CCCc1c(Oc2c(C)n(-c3noc4cc(Cl)ccc34)c3ccc(OC(F)(F)F)cc23)cccc1O[C@@H](C)C(=O)O | –
6 | 0.195 | 0.033 | Cc1c(Oc2cccc(O[C@@H](C)C(=O)O)c2)c2cc(OC(F)(F)F)ccc2n1-c1noc2cc(Cl)ccc12 | –
7 | – | – | CN(CCOc1ccc(CC2SC(=O)NC2=O)cc1)c1ccccn1 (stereo not given) [ROSIGLITAZONE] | AUC [5]: 700 uMh; AUC [3]: 2700 uMh
8 | 0.039 | 0.02 | CCCc1ccc(Oc2c(C)n(-c3noc4cc(Cl)ccc34)c3ccc(OC(F)(F)F)cc23)cc1O[C@@H](C)C(=O)O | –
9 | 0.016 | 0.042 | COc1ccc(C(=O)n2c(C)c(Cc3cccc(OCC#N)c3)c3cc(OC(F)(F)F)ccc32)cc1 | –
10 | – | – | Cc1[nH]c2ccc(OC(F)(F)F)cc2c1Cc1cccc(O[C@@H](C)C(=O)O)c1 | IC50 [6]: 0.05 µM

Row | Structure (SMILES) | EC50 [2] [µM] | IC50 [4] [µM] | further results
11 | COc1ccc2c(-n3c(C)c(Cc4cc(O[C@H](C)C(=O)O)ccc4Cl)c4cc(OC(F)(F)F)ccc43)noc2c1 | 0.003 | 0.002 | AUC [1]: 660 uMh; AUC [3]: 1030 uMh
12 | COc1ccc2ncc(-n3c(C)c(Cc4cccc(O[C@@H](C)C(=O)O)c4)c4cc(OC(F)(F)F)ccc43)cc2c1 | 0.049 | 0.029 | –
13 | Cc1c(Oc2ccc(Cl)c(O[C@@H](C)C(=O)O)c2)c2cc(OC(F)(F)F)ccc2n1-c1noc2cc(Cl)ccc12 | 0.003 | 0.001 | –
14 | COc1ccc2nc(-n3c(C)c(Cc4cccc(O[C@@H](C)C(=O)O)c4)c4cc(OC(F)(F)F)ccc43)ccc2c1 | – | 0.135 | –
15 | Cc1c(Cc2cccc(O[C@@H](C)C(=O)O)c2)c2cc(OC(F)(F)F)ccc2n1-c1ccccn1 | – | 0.466 | –
16 | COc1ccc(-n2c(C)c(Cc3cccc(O[C@@H](C)C(=O)O)c3)c3cc(OC(F)(F)F)ccc32)cc1 | 0.003 | 0.001 | –
